What all share (experiment): cell-free TR-FRET co-activator peptide displacement
Holding throughout (assay type): binding
Common to all, as to settings: read-out: EC50
A general note: TR-FRET usually uses a lanthanide donor and a delayed reading to cut background.

In one assay the target is ERβ (Homo sapiens, UniProt Q92731).
The target in the next assay is T1, ERα (Homo sapiens, UniProt P03372).
T1 sequence (P03372 311-547 limits assumed): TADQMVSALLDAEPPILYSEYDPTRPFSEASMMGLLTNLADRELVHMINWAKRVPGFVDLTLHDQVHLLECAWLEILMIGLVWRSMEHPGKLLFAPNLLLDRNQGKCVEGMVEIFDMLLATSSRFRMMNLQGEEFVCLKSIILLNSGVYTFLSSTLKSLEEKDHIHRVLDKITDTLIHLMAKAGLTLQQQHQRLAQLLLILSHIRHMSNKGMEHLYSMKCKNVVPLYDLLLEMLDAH

Assay [1] concerns the target T2, estrogen-related receptor α (ERRα) (Homo sapiens, UniProt P11474).
T2 sequence (P11474 193-423 limits assumed): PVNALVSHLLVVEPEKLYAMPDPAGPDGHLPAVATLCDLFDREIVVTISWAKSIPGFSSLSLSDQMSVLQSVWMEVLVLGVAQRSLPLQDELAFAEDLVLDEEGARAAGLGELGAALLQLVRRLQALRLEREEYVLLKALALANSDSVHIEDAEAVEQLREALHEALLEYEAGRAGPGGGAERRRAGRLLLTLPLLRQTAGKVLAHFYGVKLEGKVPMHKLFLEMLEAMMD

Chain of ERβ (Q92731 264-498 limits assumed): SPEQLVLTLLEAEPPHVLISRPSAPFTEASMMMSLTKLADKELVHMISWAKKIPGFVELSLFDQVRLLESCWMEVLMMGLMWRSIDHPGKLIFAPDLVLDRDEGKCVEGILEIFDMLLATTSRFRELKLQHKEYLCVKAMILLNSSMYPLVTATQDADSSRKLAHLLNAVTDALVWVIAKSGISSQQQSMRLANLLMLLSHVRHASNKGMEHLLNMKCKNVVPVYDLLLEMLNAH

Take `C[C@@H]1Cc2cc(O)ccc2[C@H]2CC[C@]3(C)/C(=C/COCCN(C)C)CC[C@H]3[C@H]12` [SR16388, 21-[2-(N,N-dimethylamino)ethyl]oxy-7a-methyl-19-norpregna-1,3,5(10),17(20)-tetraen-3-ol]: the IC50 on ERβ worked out at 500 ± 200 nM; at ERα it was 200 ± 200 nM; in assay [1] it was 700 ± 100 nM.

Source of the values: paper PMC2918268 (Biochemical pharmacology, 2010).
